How the values were obtained:
[1] = target: T1, human ether a go-go related gene (hERG) K′ channel (Homo sapiens, UniProt Q12809); assay: hERG activity, IonWorks patch clamp electrophysiology (Method 6); assay type: cell-based
T1 construct: Essen BioScience
Description: Method 6: Determination of hERG Activity
Compounds were tested for inhibition of the human ether a go-go related gene (hERG) K′ channel using IonWorks patch clamp electrophysiology at Essen BioScience. 8-Point concentration-response curves of the effect of compound on hERG current as a percentage of pre-compound signal were generated using 3-fold serial dilutions from 11 μM and results are reported as IC50 in μM.

[2] = CLint estimates using human liver microsomes (Method 4); assay type: in vitro ADME; settings: pH 7.4, 1 μM compound, read-out: Mics - CLint (HLM CLint)
Summary of the method: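 Depletion measured by LC/MS/MS in MRM mode over 2–50 min after starting reactions with 1 mM NADPH. Incubations used 0.5 mg/mL human liver microsomal protein, 1 μM compound, 0.1% DMSO, pH 7.4 phosphate buffer, 37 °C. ln peak area plotted against time; the gradient gave t½ and intrinsic clearance.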

[3] = system: phospho-cdc2 (Tyr15) in HT-29 cells; assay: Effect on Cdc2 phosphorylation at Tyr15, Cell-Based ELISA Base Kit (Method 3); settings: Homo sapiens, HT-29, 8 h, eight hours incubation, normalized to total cdc2, read-out: HT29 pCDC2 method 3
Summary of the method: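 HT-29 cells were treated with compounds for 8 h at 37 °C, then fixed in 4% formaldehyde. Phospho-cdc2 (Tyr15) and total cdc2 were read by dual-fluorogenic cell-based ELISA at 600/450 nm. Phospho signal was normalized to total cdc2 and expressed as % of DMSO control, and EC50 came from non-linear regression.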

T1 sequence (Q12809 whole entry): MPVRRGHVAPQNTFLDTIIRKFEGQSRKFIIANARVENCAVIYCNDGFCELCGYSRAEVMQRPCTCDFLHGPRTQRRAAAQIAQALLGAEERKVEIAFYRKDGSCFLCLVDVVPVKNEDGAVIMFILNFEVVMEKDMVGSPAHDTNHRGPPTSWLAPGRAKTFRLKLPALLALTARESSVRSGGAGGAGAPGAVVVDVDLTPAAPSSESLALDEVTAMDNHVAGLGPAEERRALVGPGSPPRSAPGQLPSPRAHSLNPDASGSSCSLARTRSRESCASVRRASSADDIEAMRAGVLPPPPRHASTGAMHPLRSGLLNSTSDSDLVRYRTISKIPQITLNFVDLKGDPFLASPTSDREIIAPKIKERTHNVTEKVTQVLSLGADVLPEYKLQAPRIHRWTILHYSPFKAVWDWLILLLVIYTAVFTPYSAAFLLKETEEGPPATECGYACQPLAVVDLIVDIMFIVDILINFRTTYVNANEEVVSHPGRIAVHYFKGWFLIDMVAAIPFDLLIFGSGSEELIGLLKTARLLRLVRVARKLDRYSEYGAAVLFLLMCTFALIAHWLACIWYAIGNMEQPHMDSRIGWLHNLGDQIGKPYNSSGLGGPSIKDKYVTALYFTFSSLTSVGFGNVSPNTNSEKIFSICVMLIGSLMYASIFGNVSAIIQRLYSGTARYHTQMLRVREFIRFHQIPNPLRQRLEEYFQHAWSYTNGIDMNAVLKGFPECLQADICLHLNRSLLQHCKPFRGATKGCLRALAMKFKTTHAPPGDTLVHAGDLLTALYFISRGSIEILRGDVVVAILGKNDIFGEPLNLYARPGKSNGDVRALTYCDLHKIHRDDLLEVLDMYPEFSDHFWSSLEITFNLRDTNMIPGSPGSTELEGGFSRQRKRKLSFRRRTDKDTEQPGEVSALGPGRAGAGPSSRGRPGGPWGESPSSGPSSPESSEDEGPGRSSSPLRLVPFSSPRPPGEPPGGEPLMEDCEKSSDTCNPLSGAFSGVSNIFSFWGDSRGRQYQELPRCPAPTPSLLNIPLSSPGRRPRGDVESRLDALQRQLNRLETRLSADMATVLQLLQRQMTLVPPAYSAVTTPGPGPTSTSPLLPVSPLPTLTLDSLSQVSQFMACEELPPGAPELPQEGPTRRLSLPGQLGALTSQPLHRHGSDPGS

Structure (SMILES)	IC50 [1] [nM]	microsomal CLint at 1 μM [2] [µL/min/mg]	EC50 [3] [nM]	hERG inhibition compared with prior art analogues ([1]; versus analogues from WO2013126656, WO2013013031 and WO2013059485)
CN1CN(c2c(Cl)cccc2Cl)C(=O)c2cnc(Nc3ccc(N4CCNCC4)cc3)nc21 [Example 1, 3-(2,6-Dichlorophenyl)-1-methyl-7-((4-(piperazin-1-yl)phenyl)amino)-2,3-dihydropyrimido[4,5-d]pyrimidin-4(1H)-one]	> 10000	15 to 50	100 to 1000	
CNCCOc1ccc(Nc2ncc3c(n2)N(C)CN(c2c(Cl)cccc2Cl)C3=O)cc1 [Example 2, 3-(2,6-Dichlorophenyl)-1-methyl-7-((4-(2-(methylamino)ethoxy)phenyl)amino)-2,3-dihydropyrimido[4,5-d]pyrimidin-4(1H)-one]		≤ 15	100 to 1000	
COc1cc(Nc2ncc3c(n2)N(C)CN(c2c(Cl)cccc2Cl)C3=O)ccc1N1CCNCC1 [Example 3, 3-(2,6-Dichlorophenyl)-7-((3-methoxy-4-(piperazin-1-yl)phenyl)amino)-1-methyl-2,3-dihydropyrimido[4,5-d]pyrimidin-4(1H)-one]		15 to 50	100 to 1000	
CNCc1cc(Nc2ncc3c(n2)N(C)CN(c2c(Cl)cccc2Cl)C3=O)ccc1N1CCOCC1 [Example 5, 3-(2,6-Dichlorophenyl)-1-methyl-7-((3-((methylamino)methyl)-4-morpholinophenyl)amino)-2,3-dihydropyrimido[4,5-d]pyrimidin-4(1H)-one]		≤ 15	100 to 1000	lower hERG inhibition
Cc1cc(Nc2ncc3c(n2)N(C)CN(c2c(Cl)cccc2Cl)C3=O)ccc1N1CCNCC1 [Example 6, 3-(2,6-Dichlorophenyl)-1-methyl-7-((3-methyl-4-(piperazin-1-yl)phenyl)amino)-2,3-dihydropyrimido[4,5-d]pyrimidin-4(1H)-one]	> 10000	15 to 50	100 to 1000	
CN1CN(c2c(Cl)cccc2Cl)C(=O)c2cnc(Nc3ccc(N4CCNCC4)c(C#N)c3)nc21 [Example 11, 3-(2,6-Dichlorophenyl)-7-((3-cyano-4-(piperazin-1-yl)phenyl)amino)-1-methyl-2,3-dihydropyrimido[4,5-d]pyrimidin-4(1H)-one]		≤ 15	100 to 1000	
CN1CN(c2c(Cl)cccc2Cl)C(=O)c2cnc(Nc3ccc(N4CCN(C(=O)CN)CC4)cc3)nc21 [Example 13, 7-((4-(4-(2-Aminoacetyl)piperazin-1-yl)phenyl)amino)-3-(2,6-dichlorophenyl)-1-methyl-2,3-dihydropyrimido[4,5-d]pyrimidin-4(1H)-one]		≤ 15	100 to 1000	
CN1CN(c2c(Cl)cccc2Cl)C(=O)c2cnc(Nc3ccc4c(c3)CNCC4)nc21 [Example 14, 3-(2,6-Dichlorophenyl)-1-methyl-7-((1,2,3,4-tetrahydroisoquinolin-7-yl)amino)-2,3-dihydropyrimido[4,5-d]pyrimidin-4(1H)-one]		≤ 15	100 to 1000	
[2H]C1([2H])N(C)c2nc(Nc3ccc(N4CCNCC4)cc3)ncc2C(=O)N1c1c(Cl)cccc1Cl [Example 15, 3-(2,6-Dichlorophenyl)-2,2-dideutero-1-methyl-7-((4-(piperazin-1-yl)phenyl)amino)-2,3-dihydropyrimido[4,5-d]pyrimidin-4(1H)-one]		≤ 15	100 to 1000	
C[C@H]1CN(c2ccc(Nc3ncc4c(n3)N(C)CN(c3c(Cl)cccc3Cl)C4=O)cc2)CCN1 [Example 17, (S)-3-(2,6-Dichlorophenyl)-1-methyl-7-((4-(3-methylpiperazin-1-yl)phenyl)amino)-2,3-dihydropyrimido[4,5-d]pyrimidin-4(1H)-one]		15 to 50	100 to 1000	
Cc1cc(Nc2ncc3c(n2)N(C)CN(c2c(Cl)cccc2Cl)C3=O)ccc1C1CCNCC1 [Example 18, 3-(2,6-Dichlorophenyl)-1-methyl-7-((3-methyl-4-(piperidin-4-yl)phenyl)amino)-2,3-dihydropyrimido[4,5-d]pyrimidin-4(1H)-one]		≤ 15	100 to 1000	
CN1CN(c2c(Cl)cccc2Cl)C(=O)c2cnc(Nc3ccc(N4CCN[C@@H](CO)C4)cc3)nc21 [Example 19, (R)-3-(2,6-Dichlorophenyl)-7-((4-(3-(hydroxymethyl)piperazin-1-yl)phenyl)amino)-1-methyl-2,3-dihydropyrimido[4,5-d]pyrimidin-4(1H)-one]		≤ 15	100 to 1000	
CC(C)N1CCN(c2ccc(Nc3ncc4c(n3)N(C)CN(c3c(Cl)cccc3Cl)C4=O)cc2CO)CC1 [Example 21, 3-(2,6-Dichlorophenyl)-7-((3-(hydroxymethyl)-4-(4-isopropylpiperazin-1-yl)phenyl)amino)-1-methyl-2,3-dihydropyrimido[4,5-d]pyrimidin-4(1H)-one]		15 to 50	100 to 1000	
CN1CCc2ccc(Nc3ncc4c(n3)N(C)CN(c3c(Cl)cccc3Cl)C4=O)cc2C1 [Example 22, 3-(2,6-Dichlorophenyl)-1-methyl-7-((2-methyl-1,2,3,4-tetrahydroisoquinolin-7-yl)amino)-2,3-dihydropyrimido[4,5-d]pyrimidin-4(1H)-one]		15 to 50	100 to 1000	
CN1CN(c2c(F)cccc2Cl)C(=O)c2cnc(Nc3ccc(N4CCNCC4)cc3)nc21 [Example 25, 3-(2-Chloro-6-fluorophenyl)-1-methyl-7-((4-(piperazin-1-yl)phenyl)amino)-2,3-dihydropyrimido[4,5-d]pyrimidin-4(1H)-one]		≤ 15	100 to 1000	
COCc1cc(Nc2ncc3c(n2)N(C)CN(c2c(Cl)cccc2Cl)C3=O)ccc1N1CCNCC1 [Example 31, 3-(2,6-dichlorophenyl)-7-((3-(methoxymethyl)-4-(piperazin-1-yl)phenyl)amino)-1-methyl-2,3-dihydropyrimido[4,5-d]pyrimidin-4(1H)-one]		≤ 15	100 to 1000	
C[C@@H]1CN[C@@H](C)CN1c1ccc(Nc2ncc3c(n2)N(C)CN(c2c(Cl)cccc2Cl)C3=O)cc1 [Example 40, 3-(2,6-dichlorophenyl)-7-((4-((2R,5S)-2,5-dimethylpiperazin-1-yl)phenyl)amino)-1-methyl-2,3-dihydropyrimido[4,5-d]pyrimidin-4(1H)-one]		≤ 15	100 to 1000	
C[C@@H]1CN(c2ccc(Nc3ncc4c(n3)N(C)CN(c3c(Cl)cccc3Cl)C4=O)cc2F)CCN1 [Example 43, (R)-3-(2,6-dichlorophenyl)-7-((3-fluoro-4-(3-methylpiperazin-1-yl)phenyl)amino)-1-methyl-2,3-dihydropyrimido[4,5-d]pyrimidin-4(1H)-one]		≤ 15	100 to 1000	
C[C@@H]1CN(c2ccc(Nc3ncc4c(n3)N(C)CN(c3c(F)cccc3Cl)C4=O)cc2)CCN1 [Example 53, (R)-3-(2-chloro-6-fluorophenyl)-1-methyl-7-((4-(3-methylpiperazin-1-yl)phenyl)amino)-2,3-dihydropyrimido[4,5-d]pyrimidin-4(1H)-one]		≤ 15	100 to 1000	
COCc1cc(Nc2ncc3c(n2)N(C)CN(c2c(Cl)cccc2Cl)C3=O)ccc1N1CCN[C@H](C)C1 [Example 59, (R)-3-(2,6-dichlorophenyl)-7-((3-(methoxymethyl)-4-(3-methylpiperazin-1-yl)phenyl)amino)-1-methyl-2,3-dihydropyrimido[4,5-d]pyrimidin-4(1H)-one]		≤ 15	100 to 1000	
COC[C@H]1CN(c2ccc(Nc3ncc4c(n3)N(C)CN(c3c(Cl)cccc3Cl)C4=O)cc2)CCN1 [Example 60, (R)-3-(2,6-dichlorophenyl)-7-((4-(3-(methoxymethyl)piperazin-1-yl)phenyl)amino)-1-methyl-2,3-dihydropyrimido[4,5-d]pyrimidin-4(1H)-one]		≤ 15	100 to 1000	
CN1CN(c2c(Cl)cccc2Cl)C(=O)c2cnc(Nc3ccc(N4CC5CCC(C4)N5)cc3)nc21 [Example 74, 7-((4-(3,8-diazabicyclo[3.2.1]octan-3-yl)phenyl)amino)-3-(2,6-dichlorophenyl)-1-methyl-2,3-dihydropyrimido [4,5-d]pyrimidin-4(1H)-one]		≤ 15	100 to 1000	
C[C@@H]1CN(c2ccc(Nc3ncc4c(n3)N(C)CN(c3c(Cl)cccc3Cl)C4=O)cc2)[C@@H](C)CN1 [Example 80, 3-(2,6-dichlorophenyl)-7-((4-((2S,5R)-2,5-dimethylpiperazin-1-yl)phenyl)amino)-1-methyl-2,3-dihydropyrimido[4,5-d]pyrimidin-4(1H)-one]		15 to 50	100 to 1000	
CN1CN(c2c(Cl)cccc2Cl)C(=O)c2cnc(Nc3ccc(N4CC5CCC(C4)N5C)c(CO)c3)nc21 [Example 86, 3-(2,6-dichlorophenyl)-7-((3-(hydroxymethyl)-4-(8-methyl-3,8-diazabicyclo[3.2.1]octan-3-yl)phenyl)amino)-1-methyl-2,3-dihydropyrimido[4,5-d]pyrimidin-4(1H)-one]		≤ 15	100 to 1000	
